One block for each substance: values may come before it. Where no end group is shown, it is not given here.
How the values were obtained:
[1] = Protein-lipid overlay assay, PIP strip; assay type: binding; conditions: 1 μg/mL protein, immunodetection, densitometry
Experimental: Protein-lipid overlay assays using Membrane strip™ or PIP strip™ (Echelon Biosciences, Salt Lake City, UT) were performed using 1 μg/mL proteins as described previously. Lipid binding was immunodetected using a combination of rabbit anti-HBD-3 IgG (50 μg/mL) and horseradish peroxidase-conjugated donkey-anti-rabbit Ig (10 μg/mL) antibodies. Chemiluminescence signal intensity was quantitated by densitometry analysis using ImageJ (National Institutes of Health, Bethesda, MD; http://imagej.nih.gov/ij/).

[2] = ATP-encapsulated liposome leakage assay, PC:PI(4,5)P2; conditions: 15 μM defensin
Experimental: Liposomes were generated as described previously using natural PI(4,5)P2 (porcine brain, in chloroform:methanol:water at 20:9:1 molar ratio) and PC (chicken egg, in chloroform) purchased from Avanti Polar Lipids. PC only or PC:PI(4,5)P2 (95:5 molar ratio) solutions were dried under a stream of nitrogen gas followed by overnight vacuum-drying. The lipid films were rehydrated to a final concentration of 5 mg/mL in 20 mM HEPES (pH 7.2) containing 5 mg/mL adenosine-5-triphosphate disodium salt (ATP; Sigma-Aldrich) at 37°C for 1 h. After three subsequent cycles of freezing (liquid nitrogen) and thawing (25°C), multilamellar liposomes were extruded 15–20 times through a mini-extruder (Avanti Polar Lipids). Free ATP was removed by three centrifugal washes with 20 mM HEPES at 16,500 g prior to the ATP release assay. Liposomes treated with 1% Triton X-100 were included as positive control and assigned as total lysis, whereas HEPES only control served as background reading. The level of ATP release at a particular time point was determined by quotient of the corrected reading (after subtracting background) of the sample at that time point and corrected reading of total lysis, as per the following equation: % Lysist=Samplet−HEPESt/Triton X−HEPES×100

[3] = tested on: U937 and HeLa cells; experiment: Cell viability assay, mutants compared to wild-type; assay type: cell-based, human; conditions: cell viability assays, 48 h
Experimental: (§1) Different concentrations of HBD-3 were added to cells seeded in 96-well plates in appropriate complete medium. Initial plating cell density was pre-optimised to avoid confluence at endpoint. After 48 h, cell viability was determined using 3-(4,5-dimethylthiazol-2-yl)-2,5-diphenyltetrazolium bromide (MTT) (Sigma-Aldrich, MO) for adherent cells (HeLa, PC3, HUVEC, AHDF, CASMC) or 3-(4,5-dimethylthiazol-2-yl)-5-(3-carboxymethoxyphenyl)-2-(4-sulfophenyl)-2H-tetrazolium (MTS) (Promega, Madison, WI) coupled with phenzine methosulfate (PMS) (Promega) for suspension cells (U937, HL-60, Jurkat) prior to absorbance measurement at 570 nm and […], respectively. Absorbance readings of untreated control wells was designated as 100% cell viability.

[4] = tested on: HeLa cells; experiment: Tetrazolium-coupled cell viability assay, HBD-3 and mutants, HeLa; assay type: cell-based, human; conditions: 48 h
Experimental: as §1

[5] = tested on: U937 cells; experiment: Tetrazolium-coupled cell viability assay, HBD-3 and mutants, U937; assay type: cell-based, human; conditions: 48 h
Experimental: as §1

[6] = tested on: plasma membrane PI(4,5)P2 of U937 cells; experiment: Anti-PI(4,5)P2 antibody blocking assay; assay type: cell-based, human; conditions: 15 μM defensins 30 min or 10 mM neomycin 3 h; cells fixed, saponin-lysed, FITC-conjugated anti-PI(4,5)P2 IgM, flow cytometry
Experimental: U937 cells at 1×10^6 cells/mL were treated with 10 mM neomycin for 3 h and/or 15 μM defensins for 30 min in serum-free RPMI 1640 medium containing 0.1% BSA, followed by 20 min fixation with 2% (v/w) paraformaldehyde (Sigma-Aldrich), 10 min lysis with 0.5% (w/v) saponin (Sigma-Aldrich), and then 30 min blocking with 3% (w/v) BSA. Three 5-min centrifugal washes with PBS at 500 g were also included between steps. FITC-conjugated mouse anti-PI(4,5)P2 IgM (Echelon Biosciences) or IgM control (GeneTex, Irvine, CA) was subsequently used at 10 μg/mL for 30 min prior to flow cytometry analysis.

[7] = tested on: U937 cells; experiment: Lipid inhibition of HBD-3 mediated PI uptake; assay type: cell-based, human; conditions: 15 μM HBD-3 pre-incubated with 50 μM synthetic lipid, flow cytometry, three independent experiments
Experimental: (§2) Cells suspended at 1×10^6 cells/mL in serum-free medium containing 0.1% (w/v) bovine serum albumin (BSA) (Sigma-Aldrich) were treated with HBD-3 at 37°C for 30 min. Nucleic acid stain propidium iodide (PI) was then added to a final concentration of 1 μg/mL and cells subjected to flow cytometry analysis using BD FACSCanto II Flow Cytometer and BD FACSDiva Software v6.1.1 (BD Biosciences, San Jose, CA). For each flow cytometry reading, 10,000 cells, gated appropriately based on forward scattering and side scattering, were recorded. The resultant data were processed using FlowJo software (Tree Star, San Carlos, CA) to determine PI-positivity, which reflects the level of membrane permeabilisation. For lipid inhibition assays, 15 μM HBD-3 was pre-incubated with 50 μM synthetic lipids, including L-α-phosphatidic acid (PA), L-α-phosphatidylcholine (PC), L-α-phosphatidylethanolamine (PE), L-α-phosphatidylserine (PS), L-α-phosphatidylinositol-4-phosphate (PI(4)P), L-α-phosphatidylinositol-3,5-bisphosphate (PI(3,5)P2), L-α-phosphatidylinositol-4,5-bisphosphate (PI(4,5)P2) and L-α-phosphatidylinositol-3,4,5-trisphosphate (PI(3,4,5)P)3. All lipids were sourced from Avanti Polar Lipids, Alabaster, AL. For neomycin inhibition experiments, U937 cells at 1×10^6 cells/mL were pre-treated with 10 mM neomycin (Sigma-Aldrich), followed by three centrifugal washes with phosphate buffered saline (PBS) at 500 g for 5 min.

[8] = tested on: U937 cells; experiment: Neomycin inhibition of membrane permeabilisation (PI uptake); assay type: cell-based, human; conditions: cells pre-treated with 10 mM neomycin, PI uptake by flow cytometry; effect overcome at higher HBD-3 concentrations
Experimental: as §2, with “For neomycin inhibition experiments, U937 cells at 1×10^6 cells/mL were pre-treated with 10 mM neomycin (Sigma-Aldrich), followed by three centrifugal washes with phosphate buffered saline (PBS) at 500 g for 5 min.” left out

[9] = tested on: tumour cells; conditions: in vitro; ref [11]; cited from earlier work
Text: The underlying mechanism was described to involve the entry of NaD1 into the cell followed by binding to PI(4,5)P2, leading to membrane permeabilisation, membrane blebbing and eventually to cell lysis.

binding to PA on PIP strip compared to wild-type HBD-3 [1]: substantially retained
binding to phosphoinositides/lipids on PIP strip [1]: much lower levels
Substance: HBD-3(K32A): alanine mutant of HBD-3 at K32, recombinantly expressed in P. pastoris (GIINTLQKYYCRVRGGRCAVLSCLPKEEQIGACSTRGRKCCRRKK; ends and bridges not checked; cysteine pairing not given here; UniProt P81534 23-67, looked up, variant K32A)
ability to induce ATP release from ATP-encapsulated liposomes compared to wild-type HBD-3 [2]: impaired
tumour cell cytotoxicity compared to wild-type HBD-3 [3]: reduced tumour cell cytotoxicity

fold higher IC50 compared to wild-type HBD-3 [4]: two-fold
binding to PA on PIP strip compared to wild-type HBD-3 [1]: maintaining binding to PA
binding to phosphoinositides/lipids on PIP strip [1]: pronounced loss of PIP binding
fold higher IC50 compared to wild-type HBD-3 [5]: three-fold
Substance: HBD-3(K39A): alanine mutant of HBD-3 at K39, recombinantly expressed in P. pastoris (GIINTLQKYYCRVRGGRCAVLSCLPKEEQIGKCSTRGRACCRRKK; UniProt P81534 23-67, looked up, variant K39A)
ability to induce ATP release from ATP-encapsulated liposomes compared to wild-type HBD-3 [2]: impaired
tumour cell cytotoxicity compared to wild-type HBD-3 [3]: reduced tumour cell cytotoxicity
blocking of anti-PI(4,5)P2 antibody binding (overall fluorescence intensity vs untreated control) [6]: essentially the same as that of the untreated control

Substance: L-α-phosphatidic acid [PA]
reduced PI-positivity (inhibition of HBD-3 mediated PI uptake by lipid) [7]: enhanced permeabilisation

Substance: L-α-phosphatidylcholine [PC]
reduced PI-positivity (inhibition of HBD-3 mediated PI uptake by lipid) [7]: did not show any significant inhibition

Substance: L-α-phosphatidylethanolamine [PE]
reduced PI-positivity (inhibition of HBD-3 mediated PI uptake by lipid) [7]: did not show any significant inhibition

Substance: L-α-phosphatidylinositol-3,4,5-trisphosphate [PI(3,4,5)P3]
reduced PI-positivity (inhibition of HBD-3 mediated PI uptake by lipid) [7]: 100%

Substance: L-α-phosphatidylinositol-3,5-bisphosphate [PI(3,5)P2]
reduced PI-positivity (inhibition of HBD-3 mediated PI uptake by lipid) [7]: did not show any significant inhibition

Substance: L-α-phosphatidylinositol-4,5-bisphosphate [PI(4,5)P2]
reduced PI-positivity (inhibition of HBD-3 mediated PI uptake by lipid) [7]: ~50%

Substance: L-α-phosphatidylinositol-4-phosphate [PI(4)P]
reduced PI-positivity (inhibition of HBD-3 mediated PI uptake by lipid) [7]: did not show any significant inhibition

Substance: L-α-phosphatidylserine [PS]
reduced PI-positivity (inhibition of HBD-3 mediated PI uptake by lipid) [7]: ~15%

Substance: LL-37: another CAP that exhibits non-PI(4,5)P2-dependent detergent-like and/or pore-forming membrane disruption (LLGDFFRKSKEKIGKEFKRIVQRIKDFLRNLVPRTES; Antibacterial peptide LL-37; UniProt P49913 134-170, looked up) [reference compound]
susceptibility of neomycin pre-incubated cells to permeabilisation compared to untreated control [8]: not

Substance: Nicotiana alata defensin 1 (RECKTESNTFPGICITKPPCRKACISEKFTDGHCSKILRRCLCTKPC; UniProt Q8GTM0 26-72, looked up) [NaD1]
concentrations selectively killing a broad spectrum of tumour cells [9]: low micromolar concentrations

Reference: publication PMC4811302, “Human β-defensin 3 contains an oncolytic motif that binds PI(4,5)P2 to mediate tumour cell permeabilisation” (Oncotarget, 2015)
